Structures can show the parent of a compound that is named as a salt.
Target: T1, proton pump (H+/K+-ATPase) (Sus scrofa, UniProt P19156)
T1 construct: Gastric vesicles were prepared from hog stomach via centrifugal separation; from tissue; host or cells: hog stomach (gastric vesicles, method of Rabon et al. 1988)
Assay: Measurement of inhibitory effects on proton pump (H+/K+-ATPase) activities
Type: biochemical
Conditions: hog gastric vesicles, K+-specific H+/K+-ATPase activity, Tris-HCl buffer pH 7.4, 37° C. for 40 minutes, malachite green Pi readout
Method in brief: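 Hog gastric vesicles in 60 mmol/l Tris-HCl pH 7.4 with 0.5% DMSO were treated with compounds at room temperature; reaction was started with 10 μl of 10 mmol/l ATP stock. Released Pi was read at 570 nm, K+-specific activity taken as the ±K+ difference. IC50 from 4-parameter logistic fit.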

T1 sequence (P19156 whole entry): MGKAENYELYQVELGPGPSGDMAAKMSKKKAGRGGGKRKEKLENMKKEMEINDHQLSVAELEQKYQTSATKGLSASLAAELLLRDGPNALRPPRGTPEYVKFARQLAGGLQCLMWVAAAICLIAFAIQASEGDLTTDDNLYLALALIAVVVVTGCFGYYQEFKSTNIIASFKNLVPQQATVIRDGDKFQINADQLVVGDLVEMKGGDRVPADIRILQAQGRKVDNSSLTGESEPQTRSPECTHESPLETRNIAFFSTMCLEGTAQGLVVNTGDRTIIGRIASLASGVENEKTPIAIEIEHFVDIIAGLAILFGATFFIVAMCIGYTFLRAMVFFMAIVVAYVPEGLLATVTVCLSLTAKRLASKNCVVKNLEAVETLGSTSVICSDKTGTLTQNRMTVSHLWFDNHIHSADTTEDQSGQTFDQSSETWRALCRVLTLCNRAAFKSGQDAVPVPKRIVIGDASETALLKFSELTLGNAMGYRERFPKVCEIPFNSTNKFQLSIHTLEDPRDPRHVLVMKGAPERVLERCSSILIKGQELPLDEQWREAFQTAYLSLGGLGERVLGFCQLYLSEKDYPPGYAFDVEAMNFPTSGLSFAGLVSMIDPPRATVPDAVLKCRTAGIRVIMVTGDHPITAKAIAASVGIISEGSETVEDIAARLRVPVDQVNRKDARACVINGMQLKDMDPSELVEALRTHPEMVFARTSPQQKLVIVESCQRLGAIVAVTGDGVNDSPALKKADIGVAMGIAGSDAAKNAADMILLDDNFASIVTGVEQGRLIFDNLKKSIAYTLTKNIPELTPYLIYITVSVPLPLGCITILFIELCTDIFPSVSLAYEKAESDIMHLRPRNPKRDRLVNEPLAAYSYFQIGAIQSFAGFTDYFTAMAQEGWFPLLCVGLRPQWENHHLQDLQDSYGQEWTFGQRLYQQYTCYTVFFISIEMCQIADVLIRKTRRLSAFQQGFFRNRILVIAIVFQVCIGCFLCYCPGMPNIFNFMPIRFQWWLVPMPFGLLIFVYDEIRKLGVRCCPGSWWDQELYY
T1 sequence (P18434 whole entry partner): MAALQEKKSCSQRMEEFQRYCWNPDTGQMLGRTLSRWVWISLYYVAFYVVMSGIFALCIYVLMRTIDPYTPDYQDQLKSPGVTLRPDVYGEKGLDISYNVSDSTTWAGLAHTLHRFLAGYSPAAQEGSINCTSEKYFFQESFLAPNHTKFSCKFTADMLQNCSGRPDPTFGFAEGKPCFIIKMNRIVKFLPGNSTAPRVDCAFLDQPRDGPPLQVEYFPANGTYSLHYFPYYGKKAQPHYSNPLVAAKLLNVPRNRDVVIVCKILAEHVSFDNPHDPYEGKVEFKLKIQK

IC50 [µM] | Compound
5 | COc1cc(OC(F)(F)F)ccc1Nc1ccc2c(C(=O)N(C)C)cn(S(=O)(=O)c3cccnc3)c2c1 [Example 328, 6-((2-methoxy-4-(trifluoromethoxy)phenyl)amino)-N,N-dimethyl-1-(pyridin-3-ylsulfonyl)-1H-indol-3-carboxamide]
42 | Cc1ccc(Nc2ccc3c(C(=O)N(C)C)cn(S(=O)(=O)c4cccnc4)c3c2)c(F)c1F [Example 329, 6-((2,3-difluoro-4-methylphenyl)amino)-N,N-dimethyl-1-(pyridin-3-ylsulfonyl)-1H-indol-3-carboxamide]
22 | Cc1ccc(Nc2ccc3c(C(=O)N(C)C)cn(S(=O)(=O)c4cccnc4)c3c2)c(Cl)n1 [Example 330, 6-((2-chloro-6-methylpyridin-3-yl)amino)-N,N-dimethyl-1-(pyridin-3-ylsulfonyl)-1H-indol-3-carboxamide]
70 | CN(C)C(=O)c1cn(S(=O)(=O)c2cccnc2)c2cc(Nc3ccc(Cl)nc3Cl)ccc12 [Example 331, 6-((2,6-dichloropyridin-3-yl)amino)-N,N-dimethyl-1-(pyridin-3-ylsulfonyl)-1H-indol-3-carboxamide]
60 | COc1ccc(Nc2ccc3c(C(=O)N(C)C)cn(S(=O)(=O)c4cccnc4)c3c2)c(Cl)n1 [Example 332, 6-((2-chloro-6-methoxypyridin-3-yl)amino)-N,N-dimethyl-1-(pyridin-3-ylsulfonyl)-1H-indol-3-carboxamide]
5.84 | CNc1cn(S(=O)(=O)c2cccnc2)c2cc(Nc3ccc(C)cc3F)ccc12 [Example 333, N6-(2-fluoro-4-methylphenyl)-N3-methyl-1-(pyridin-3ylsulfonyl)-1H-indol-3,6-diamine hydrochloride]
0.37 | CNCc1cn(S(=O)(=O)c2cccc(F)c2)c2cc(Nc3ccc(C)cc3F)cnc12 [Example 339, N-(2-fluoro-4-methylphenyl)-1-((3-fluorophenyl)sulfonyl)-3-((methylamino)methyl)-1H-pyrrolo[3,2-b]pyridin-6-amine hydrochloride]

Second part, the compound before the results:

Compound | IC50 [µM]
COC(=O)c1cn(S(=O)(=O)c2cccnc2)c2cc(-c3ccc(OC)cc3)ccc12 [Example 335, methyl 6-(4-methoxyphenyl)-1-(pyridin-3-ylsulfonyl)-1H-indol-3-carboxylate] | 1.34
COC(=O)c1cn(S(=O)(=O)c2cccnc2)c2cc(-c3ccc(F)nc3)ccc12 [Example 336, methyl 6-(6-fluoropyridin-3-yl)-1-(pyridin-3-ylsulfonyl)-1H-indol-3-carboxylate] | 2.7
COC(=O)c1cn(S(=O)(=O)c2ccc(Cl)nc2)c2cc(-c3ccc(F)nc3)ccc12 [Example 337, methyl 1-((6-chloropyridin-3-yl)sulfonyl)-6-(6-fluoropyridin-3-yl)-1H-indol-3-carboxylate] | 3.15
COC(=O)c1cn(S(=O)(=O)c2cccnc2)c2cc(-c3ccc(OC)nc3)ccc12 [Example 338, methyl 6-(6-methoxypyridin-3-yl)-1-(pyridin-3-ylsulfonyl)-1H-indol-3-carboxylate] | 3.5
CNCc1cn(S(=O)(=O)c2cccc(F)c2)c2cc(Nc3ccc(C)cc3OC(F)(F)F)cnc12 [Example 340, 1-((3-fluorophenyl)sulfonyl)-N-(4-methyl-2-(trifluoromethoxy)phenyl)-3-((methylamino)methyl)-1H-pyrrolo[3,2-b]pyridin-6-amine hydrochloride] | 0.57
CNCc1cn(S(=O)(=O)c2cccc(F)c2)c2cc(Nc3ccc(Cl)cc3C)cnc12 [Example 341, N-(4-chloro-2-methylphenyl)-1-((3-fluorophenyl)sulfonyl)-3-((methylamino)methyl)-1H-pyrrolo[3,2-b]pyridin-6-amine hydrochloride] | 0.38
CNCc1cn(S(=O)(=O)c2cccc(F)c2)c2cc(Nc3ccc(OC(F)(F)F)cc3OC)cnc12 [Example 343, 1-((3-fluorophenyl)sulfonyl)-N-(2-methoxy-4-(trifluoromethoxy)phenyl)-3-((methylamino)methyl)-1H-pyrrolo[3,2-b]pyridin-6-amine hydrochloride] | 1.92

— US9676714B2, “Sulfonylindole derivatives and method for preparing the same” (Daewoong Pharmaceutical Co., Ltd., priority 2013, dated 2017)
